Reference: ChEMBL document CHEMBL3885861, “Open TG-GATES”

Species on record: Rattus norvegicus
Test: Open TG-GATES - Regimen: Daily Repeat
Format: toxicity, organism-based, Sprague-Dawley
Parameters: regimen Daily Repeat, gender Male, age 6 weeks
Conditions: in vivo, po, 10 mg/kg, route gavage, dose level Low; for APTT / Bas / Eos / Fbg / Hb / Ht / Lym / MCH / MCHC / MCV / Mono / Neu / PT / Plat / RBC / Ret / WBC: tissue Blood; for KIDNEY_L / KIDNEY_R / KIDNEY_TOTAL: tissue Kidney; for LIVER: tissue Liver; for A/G / ALP / ALT / AST / BUN / CRE / Ca / Cl / DBIL / GLC / IP / K / LDH / Na / PL / RALB / TBIL / TC / TG / TP / gamma-GTP: tissue Plasma

Structure (SMILES): CCC1(c2ccccc2)C(=O)NC(=O)NC1=O [PHENOBARBITAL]
- TERMINAL_BW (72 h, time 3 day): 224.1 g
- APTT (72 h, time 3 day): 15.6 s
- Bas (72 h, time 3 day): 0%
- Eos (72 h, time 3 day): 1%
- Fbg (72 h, time 3 day): 226.8 mg/dL
- Hb (72 h, time 3 day): 13.3 g/dL
- Ht (72 h, time 3 day): 39.6%
- Lym (72 h, time 3 day): 71.6%
- MCH (72 h, time 3 day): 22 pg
- MCHC (72 h, time 3 day): 33.6%
- MCV (72 h, time 3 day): 65.5 fL
- Mono (72 h, time 3 day): 11.4%
- Neu (72 h, time 3 day): 16.4%
- PT (72 h, time 3 day): 11.9 s
- Plat (72 h, time 3 day): 126.7 x10_4/uL
- RBC (72 h, time 3 day): 605.2 x10_4/ul
- Ret (72 h, time 3 day): 7.9%
- WBC (72 h, time 3 day): 126 x10_2/uL
- KIDNEY_L (72 h, time 3 day): 1 g
- KIDNEY_R (72 h, time 3 day): 1 g
- KIDNEY_TOTAL (72 h, time 3 day): 2 g
- LIVER (72 h, time 3 day): 12 g
- A/G (72 h, time 3 day): 1.5
- ALP (72 h, time 3 day): 757.2 IU/L
- ALT (72 h, time 3 day): 34.6 IU/L
- AST (72 h, time 3 day): 61.6 IU/L
- BUN (72 h, time 3 day): 15.2 mg/dL
- CRE (72 h, time 3 day): 0.5 mg/dL
- Ca (72 h, time 3 day): 10.6 mg/dL
- Cl (72 h, time 3 day): 106.6 meq/L
- DBIL (72 h, time 3 day): 0.018 mg/dL
- GLC (72 h, time 3 day): 197.2 mg/dL
- IP (72 h, time 3 day): 8.3 mg/dL
- K (72 h, time 3 day): 4.8 meq/L
- LDH (72 h, time 3 day): 106.8 IU/L
- Na (72 h, time 3 day): 139 meq/L
- PL (72 h, time 3 day): 147.8 mg/dL
- RALB (72 h, time 3 day): 3.5 g/dL
- TBIL (72 h, time 3 day): 0.3 mg/dL
- TC (72 h, time 3 day): 83.4 mg/dL
- TG (72 h, time 3 day): 104.8 mg/dL
- TP (72 h, time 3 day): 5.8 g/dL
- gamma-GTP (72 h, time 3 day): 1.6 IU/L
- TERMINAL_BW ([…], time 7 day): 253.6 g
- TERMINAL_BW ([…], time 14 day): 311.1 g
- TERMINAL_BW ([…], time 28 day): 391.1 g
- APTT ([…], time 7 day): 16.3 s
- Bas ([…], time 7 day): 0%
- Eos ([…], time 7 day): 1%
- Fbg ([…], time 7 day): 236 mg/dL
- Hb ([…], time 7 day): 13.8 g/dL
- Ht ([…], time 7 day): 41.2%
- Lym ([…], time 7 day): 80.6%
- MCH ([…], time 7 day): 21.8 pg
- MCHC ([…], time 7 day): 33.4%
- MCV ([…], time 7 day): 65.2 fL
- Mono ([…], time 7 day): 3%
- Neu ([…], time 7 day): 15.4%
- PT ([…], time 7 day): 11.6 s
- Plat ([…], time 7 day): 113.9 x10_4/uL
- RBC ([…], time 7 day): 632.6 x10_4/ul
- Ret ([…], time 7 day): 6.6%
- WBC ([…], time 7 day): 95.6 x10_2/uL
- APTT ([…], time 14 day): 16.6 s
- Bas ([…], time 14 day): 0%
- Eos ([…], time 14 day): 0.2%
- Fbg ([…], time 14 day): 234.6 mg/dL
- Hb ([…], time 14 day): 15 g/dL
- Ht ([…], time 14 day): 45.1%
- Lym ([…], time 14 day): 84.6%
- MCH ([…], time 14 day): 20.6 pg
- MCHC ([…], time 14 day): 33.3%
- MCV ([…], time 14 day): 61.7 fL
- Mono ([…], time 14 day): 5.8%
- Neu ([…], time 14 day): 9.6%
- PT ([…], time 14 day): 11.4 s
- Plat ([…], time 14 day): 114.1 x10_4/uL
- RBC ([…], time 14 day): 731.2 x10_4/ul
- Ret ([…], time 14 day): 5%
- WBC ([…], time 14 day): 141.4 x10_2/uL
- APTT ([…], time 28 day): 17.6 s
- Bas ([…], time 28 day): 0%
- Eos ([…], time 28 day): 1%
- Fbg ([…], time 28 day): 226.6 mg/dL
- Hb ([…], time 28 day): 15 g/dL
- Ht ([…], time 28 day): 43.9%
- Lym ([…], time 28 day): 86.6%
- MCH ([…], time 28 day): 20.1 pg
- MCHC ([…], time 28 day): 34.1%
- MCV ([…], time 28 day): 58.9 fL
- Mono ([…], time 28 day): 3.8%
- Neu ([…], time 28 day): 8.8%
- PT ([…], time 28 day): 12.1 s
- Plat ([…], time 28 day): 97.5 x10_4/uL
- RBC ([…], time 28 day): 746 x10_4/ul
- Ret ([…], time 28 day): 2.9%
- WBC ([…], time 28 day): 114.8 x10_2/uL
- KIDNEY_L ([…], time 7 day): 1.1 g
- KIDNEY_R ([…], time 7 day): 1.1 g
- KIDNEY_TOTAL ([…], time 7 day): 2.1 g
- KIDNEY_L ([…], time 14 day): 1.2 g
- KIDNEY_R ([…], time 14 day): 1.2 g
- KIDNEY_TOTAL ([…], time 14 day): 2.3 g
- KIDNEY_L ([…], time 28 day): 1.4 g
- KIDNEY_R ([…], time 28 day): 1.3 g
- KIDNEY_TOTAL ([…], time 28 day): 2.7 g
- LIVER ([…], time 7 day): 13.7 g
- LIVER ([…], time 14 day): 15.6 g
- LIVER ([…], time 28 day): 16.8 g
- A/G ([…], time 7 day): 1.5
- ALP ([…], time 7 day): 686.4 IU/L
- ALT ([…], time 7 day): 28 IU/L
- AST ([…], time 7 day): 57 IU/L
- BUN ([…], time 7 day): 18.4 mg/dL
- CRE ([…], time 7 day): 0.6 mg/dL
- Ca ([…], time 7 day): 10.9 mg/dL
- Cl ([…], time 7 day): 105.2 meq/L
- DBIL ([…], time 7 day): 0.034 mg/dL
- GLC ([…], time 7 day): 210 mg/dL
- IP ([…], time 7 day): 8.5 mg/dL
- K ([…], time 7 day): 4.7 meq/L
- LDH ([…], time 7 day): 86.8 IU/L
- Na ([…], time 7 day): 139.6 meq/L
- PL ([…], time 7 day): 161.2 mg/dL
- RALB ([…], time 7 day): 3.6 g/dL
- TBIL ([…], time 7 day): 0.4 mg/dL
- TC ([…], time 7 day): 82.4 mg/dL
- TG ([…], time 7 day): 129.2 mg/dL
- TP ([…], time 7 day): 6 g/dL
- gamma-GTP ([…], time 7 day): 1.2 IU/L
- A/G ([…], time 14 day): 1.6
- ALP ([…], time 14 day): 858.8 IU/L
- ALT ([…], time 14 day): 33.8 IU/L
- AST ([…], time 14 day): 63.2 IU/L
- BUN ([…], time 14 day): 17.8 mg/dL
- CRE ([…], time 14 day): 0.6 mg/dL
- Ca ([…], time 14 day): 11.3 mg/dL
- Cl ([…], time 14 day): 106 meq/L
- DBIL ([…], time 14 day): 0.004 mg/dL
- GLC ([…], time 14 day): 193.8 mg/dL
- IP ([…], time 14 day): 9.1 mg/dL
- K ([…], time 14 day): 4.7 meq/L
- LDH ([…], time 14 day): 100 IU/L
- Na ([…], time 14 day): 141.6 meq/L
- PL ([…], time 14 day): 162.8 mg/dL
- RALB ([…], time 14 day): 4 g/dL
- TBIL ([…], time 14 day): 0.2 mg/dL
- TC ([…], time 14 day): 83.8 mg/dL
- TG ([…], time 14 day): 127.6 mg/dL
- TP ([…], time 14 day): 6.6 g/dL
- gamma-GTP ([…], time 14 day): 1 IU/L
- A/G ([…], time 28 day): 1.6
- ALP ([…], time 28 day): 707.4 IU/L
- ALT ([…], time 28 day): 29.6 IU/L
- AST ([…], time 28 day): 56.2 IU/L
- BUN ([…], time 28 day): 21.6 mg/dL
- CRE ([…], time 28 day): 0.3 mg/dL
- Ca ([…], time 28 day): 10.3 mg/dL
- Cl ([…], time 28 day): 108.4 meq/L
- DBIL ([…], time 28 day): 0.026 mg/dL
- GLC ([…], time 28 day): 195.8 mg/dL
- IP ([…], time 28 day): 7.4 mg/dL
- K ([…], time 28 day): 5 meq/L
- LDH ([…], time 28 day): 84.2 IU/L
- Na ([…], time 28 day): 139.8 meq/L
- PL ([…], time 28 day): 148 mg/dL
- RALB ([…], time 28 day): 3.9 g/dL
- TBIL ([…], time 28 day): 0.4 mg/dL
- TC ([…], time 28 day): 69.6 mg/dL
- TG ([…], time 28 day): 164.4 mg/dL
- TP ([…], time 28 day): 6.3 g/dL
- gamma-GTP ([…], time 28 day): 1.4 IU/L
